Reference: patent publication US11186585B2 (priority 2018, dated 2021)
Several values for one entry are separate records, joined by “and”; a condition that tells them apart may be missing. Equal values may be shown once.

Assays:
Sprague-Dawley rats = assay: Antinociceptive activity, cold ethanol tail-flick test after oral gavage; assay type: in vivo, rat; conditions: oral gavage in sesame oil, 60 uM/kg, one dose; tail-flick at −20° C., cutoff 40 seconds
healthy volunteers [1] = assay: Double-blind trial, heat pain threshold (hot water at 50° C.) after oral capsule; assay type: in vivo, human; conditions: oral, individual data, 33 45 mg, NB 35 mg, 39 68 mg
Description: Double-blind, NB hydrochloride and NB-39 controlled, trial of the antinociceptive effect of oral NB-33 in healthy volunteers. […] Each week a healthy volunteer would receive a pill from the assigned set in a random fashion and take it orally. […]
(§1) Following one week of a wash out period, each volunteer repeated the protocol until all pills from the assigned set were administered. The individual data for heat pain threshold as % MPE=[(test latency−baseline latency)/(baseline latency)]×100 and for miosis as % MPE=[(test diameter−baseline diameter)/(baseline diameter)]×100 are shown in Table 2 and Table 3 respectively.
(§2) Independent samples t-test was used to compare the means of % MPE analgesia and miosis in the two pairs of samples: NB-33 and NB and NB-33 and NB-39. All analyses were made using SPSS (v.25). • Bold indicates statistical significance at α=0.05

healthy volunteers [2] = assay: Double-blind trial, miosis after oral capsule; assay type: in vivo, human; conditions: oral, individual data, 33 45 mg, NB 35 mg, 39 68 mg
Description: Double-blind, NB hydrochloride and NB-39 controlled, trial of the antinociceptive effect of oral NB-33 in healthy volunteers. Each of the three healthy volunteers was assigned a set of 6 non-transparent gelatin capsules as follows: 2×NB hydrochloride (MW=393.4; 39 mg), 2×NB-33 (MW=451.6; 45 mg) and 2×NB-39 (MW=680.0; 68 mg). Each week a healthy volunteer would receive a pill from the assigned set in a random fashion and take it orally. At T=0 hr, 0.25 hr, 0.5 hr, 1 hr, 1.5 hr, 2 hr, 3 hr and 5 hr followed oral administration a heat pain threshold was measured (hot water at 50° C.) as well as miosis.
as §1, §2

[3] = in vivo; cited from earlier work

Structure (SMILES): Oc1ccc2c3c1OC1C(O)CCC4(O)C(C2)N(CC2CCC2)CCC314 (centres unmarked) [NB, 3-(cyclobutylmethyl)-1,2,3,4,5,6,7,7a-octahydro-4aH-4,12-methanobenzofuro[3,2-e]isoquinoline-4a,7,9-triol]
- Analgesia (rat) (Sprague-Dawley rats): moderate
- % MPE (analgesia) (healthy volunteers [1]; 0 hr (baseline)): 0.0 % MPE
- % MPE (analgesia) (healthy volunteers [1]; 0.25 hr): 0.0 % MPE and 29.5 % MPE and 5.3 % MPE (2×) and 56.3 % MPE and 21.4 % MPE
- % MPE (analgesia) (healthy volunteers [1]; 0.5 hr): 5.6 % MPE and 39.3 % MPE and 10.5 % MPE and 50.0 % MPE and 21.1 % MPE and 35.7 % MPE
- % MPE (analgesia) (healthy volunteers [1]; 1 hr): 50.0 % MPE and 34.4 % MPE and 42.1 % MPE and 87.5 % MPE and 47.4 % MPE and 57.1 % MPE
- % MPE (analgesia) (healthy volunteers [1]; 1.5 hr): 100.0 % MPE and 54.1 % MPE and 68.4 % MPE and 112.5 % MPE and 73.7 % MPE and 78.6 % MPE
- % MPE (analgesia) (healthy volunteers [1]; 2 hr): 94.4 % MPE and 54.1 % MPE and 94.7 % MPE and 162.5 % MPE and 57.9 % MPE and 50.0 % MPE
- % MPE (analgesia) (healthy volunteers [1]; 2.5 hr): 66.7 % MPE and 82.0 % MPE and 57.9 % MPE and 106.3 % MPE and 36.8 % MPE and 35.7 % MPE
- % MPE (analgesia) (healthy volunteers [1]; 3 hr): 22.2 % MPE and 32.8 % MPE and 68.4 % MPE and 37.5 % MPE and 57.9 % MPE and 0.0 % MPE
- % MPE (analgesia) (healthy volunteers [1]; 5 hr): −5.6 % MPE and 27.9 % MPE and 5.3 % MPE (2×) and 26.7 % MPE and 0.0 % MPE
- % MPE (miosis) (healthy volunteers [2]; 0 hr (baseline)): 0.0 % MPE
- % MPE (miosis) (healthy volunteers [2]; 0.25 hr): 3.1 % MPE and 9.4 % MPE and 6.7 % MPE and 0.0 % MPE and 3.2 % MPE and 2.9 % MPE
- % MPE (miosis) (healthy volunteers [2]; 0.5 hr): 9.4 % MPE (2×) and 37.5 % MPE and 0.0 % MPE and 9.7 % MPE and 8.8 % MPE
- % MPE (miosis) (healthy volunteers [2]; 1 hr): 21.9 % MPE (2×) and 46.9 % MPE and 6.7 % MPE and 45.2 % MPE and −2.9 % MPE
- % MPE (miosis) (healthy volunteers [2]; 1.5 hr): 17.2 % MPE (2×) and 65.6 % MPE and 25.0 % MPE and 45.2 % MPE and 29.4 % MPE
- % MPE (miosis) (healthy volunteers [2]; 2 hr): 18.8 % MPE and 31.3 % MPE (2×) and 55.6 % MPE and 58.1 % MPE and 11.8 % MPE
- % MPE (miosis) (healthy volunteers [2]; 2.5 hr): 18.8 % MPE and 3.1 % MPE and 50.0 % MPE and 25.0 % MPE and 25.8 % MPE and 26.5 % MPE
- % MPE (miosis) (healthy volunteers [2]; 3 hr): 6.2 % MPE (2×) and 33.3 % MPE and 21.9 % MPE and 16.1 % MPE and 20.6 % MPE
- % MPE (miosis) (healthy volunteers [2]; 5 hr): 6.2 % MPE (2×) and 3.1 % MPE and 22.2 % MPE and 9.7 % MPE and 7.8 % MPE
- oral bioavailability [3]: low
